Patent publication US20040242476A1, “Male contraceptives” (The Population Council, Inc, priority 2001, published 2004)

Legend:
[1] = test system: inter-Sertoli TJ-permeability barrier; test: Transepithelial electrical resistance (TER) across Sertoli cell epithelia; type: cell-based, rat
Method: Preparation of Sertoli cell cultures. Primary Sertoli cells were isolated from 20-day-old Sprague-Dawley rat testes as previously described (Cheng et al., 1986). For low cell density cultures, Sertoli cells were plated at 5×10^4 cells/cm^2 in 100-mm Petri dishes [approximately 4.5×10^6 cells/100-mm dish/9 ml Ham's F12 Nutrient Mixture/Dulbecco's Modified Eagle's Medium (F12/DMEM, 1:1, vol/vol, Life Technologies, Inc.); F12/DMEM were supplemented with 15 mM HEPES, 1.2 g/L sodium bicarbonate, 10 μg/ml bovine insulin, 5 μg/ml human transferrin, 2.5 ng/ml EGF, 20 mg/L gentamicin and 10 μg/ml bacitracin. Sertoli cells cultured under low cell density formed monolayer epithelia without the assembly of inter-Sertoli TJs when monitored by TER measurement (Grima et al., 1998). However, both adherens junctions (AJs) and gap junctions (GJs) were formed (Chung et al., 1999). For high cell density cultures, Sertoli cells were plated on Matrigel™ (Collaborative Biochemical Products, Belford, Mass.)-coated (diluted 1:7 with F12/DMEM, vol/vol) 24-well dishes (effective surface area, approximately 1.88 cm^2, with 2 ml F12/DMEM per well) at a density of 0.6-3×10^6 cells/cm^2 as previously described (Grima et al., 1998) to allow formation of TJs, AJs and GJs, mimicking Sertoli cells found in vivo when assessed by various criteria (Grima et al., 1992). Cell cultures were incubated in a humidified atmosphere of 95% air and 5% CO2 (vol/vol) at 35° C. and TER readings were recorded 24 hr later and designated as cultures at day 1.
Assessing the integrity of the inter-Sertoli TJ-permeability barrier by measuring the transepithelial electrical resistance (TER) across Sertoli cell epithelia To assess the effects of occludin peptide on the assembly of inter-Sertoli TJs, Sertoli cells isolated from 20-day-old rat testes were cultured at 1.2×10^6 cells/cm^2 to allow the assembly of inter-Sertoli TJs, and the TER, which is a quantitative measurement of TJ integrity, across the Sertoli cell epithelia was quantified as previously described (Wong et al., 2000; Grima et al. 1998). Cells were plated on Matrigel™ (1:7)-coated HA filters in the apical chamber (Millipore, Bedford, Mass.) (25, 28). Great care was taken so that air bubbles were not trapped between Sertoli cell aggregates, which is the major obstacle to obtain steady TER across the Sertoli cell epithelia since air bubbles create physical pores between adjacent Sertoli cells. TER across the Sertoli cell epithelia at specific time points was determined by a Millicell electrical resistance system as described (Grima et al., 1998; Cheng and Chung, 2001). The resistance in ohm was multiplied by the effective surface area of the bicameral unit (approximately 0.6 cm^2) to yield the area resistance (ohm.cm^2). The net value of electrical resistance was then computed by substracting the background, which was measured on the Matrigel-coated cell-free chambers, from values of Sertoli cell-plated chambers. To minimize temperature-induced fluctuations during TER measurement, cultures were stabilized at room temperature for 20-30 minutes prior to recording TER across the Sertoli cell epithelia. Synthetic occludin peptide at 0.2-4 μM was included in the basal (0.5 ml F12/DMEM containing 0.03% DMSO, vol/vol, DMSO was used to solubilize the peptide in medium) and apical (0.5 ml F12/DME containing 0.03% DMSO, vol/vol) chambers of the bicameral units 24 hours after freshly isolated Sertoli cells were plated onto Matrigel-coated units (day 1). […]

[2] = test system: Sertoli cells; test: Trypan blue dye-exclusion cell viability test; type: cell-based, rat; details: peptide-treated cultures (data not shown)
[3] = test system: spermatogenesis in adult rat testis; test: Intratesticular injection: testicular weight and histological analysis of the testis; type: in vivo
Method: Intratesticular injection of occludin peptide and histological analysis of the testis. To assess the in vivo effects of the occludin peptide on spermatogenesis, peptide was administered to testes of adult rats by direct intratesticular injection as follows. Peptide was suspended in 0.9% sterile saline, sterilized by exposure to UV for 5 minutes. […] First, UV treated peptide retained the same retention time on reverse-phase HPLC using a Vydac C18 column (4.6×250 mm, i.d.) (Cheng et al., 1998; Cheng et al., 1989) when compared to peptide prior to the UV treatment. Second, the primary sequence of the UV-trated peptide remain unaltered when direct protein microsequencing was performed as described (Mruk and Cheng, 1990; Cheng et al., 1998; Cheng et al., 1989). Adult rats weighing between 250 and 300 g body weight were anesthetized with Metofane® before treatment. Rats received either 300 μl of 0.9% sterile saline (vehicle control), no treatment (control), or 1.5-10 mg of occludin peptide suspended in 300 μl of 0.9% sterile saline intratesticularly. The right testis of an animal received the peptide or vehicle and the left testis of the same animal was not treated and was used as a control. Peptide or vehicle was administered at 3 sites/testis with about 100 μl sample per site essentially as previously described (Grima et al., 1998; Eng et al., 1994). In another control group, rats were injected with a synthetic 22-amino acid peptide of NH2—[…]—COOH based on a known Sertoli cell protein, rat myotubularin (rMTM) (Li et al., 2000; Li et al., 2001), which had no sequence homology with occludin. Three rats were used in each treatment group and rats were sacrificed by CO2 asphyxiation at specific time points. Testes were removed immediately and fixed in 10% neutral buffered formalin. Testes were embedded in paraffin, and dehydrated in graded ethanol. For morphological analysis, 5 μm sections were cut and stained with hematoxylin and eosin. About 50 sections were examined at different sites for each testis using an Olympus BX40 microscope (Tokyo, Japan), interfaced to an Olympus PM-30 Exposure Control Unit.
Following HPLC purification, occludin or myotubularin peptide was suspended in 0.9% sterile saline and sterilized under UV for 5 minutes. Each rat in the experimental group received an intratesticular injection of 300 μl of saline containing either 0.15 mg or 1.5 mg of the corresponding purified peptide. The peptide suspension was distributed in each testis at 3 sites (approximately […] per site) as described in Materials and Methods and detailed elsewhere (Grima et al., 1992; Eng et al., 1994). […] FIGS. 6D-F are another control set of testes where rats received an intratesticular injection of the myotubularin peptide at 10 (FIG. 6D), 23 (FIG. 6E), and 40 days (FIG. 6F) post-treatment.

[4] = test system: blood-testis barrier (BTB); test: Blood-testis barrier integrity by micropuncture, [125I]-BSA in STF and RTF; type: in vivo, rat; details: for effect on BTB integrity: intratesticular injection 1.5 mg/testis
Method: Assessing the occludin-peptide induced disruption of the blood-testis barrier (BTB) by micropuncture techniques.
Briefly, 5 μg of BSA (Sigma, RIA grade, Mr 68 kDa) was radioiodinated by Iodogen (Fraker et al., 1978) using 1 mCi of [^125I]-sodium iodide (Amersham Pharmacia Biotech) as described (Cheng et al., 1983).
Detection of [^125]-BSA in seminiferous tubular fluid (STF) and rete testis fluid (RTF). 2, 4, 6, and 12-week after an intratesticular administration of 1.5 mg of either occludin or myotubularin peptide/testis as described above (administered at 3 sites to the right testis) where the left testis of the same animal was used as a control. Rats (n=4-6 rats per time point, approximately 250 gm b.w. at the time of peptide treatment) were anesthetized with ketamine HCl (Fort Dodge Laboratories, Inc., Fort Dodge Iowa) at 60 mg/kg b.w. Micropuncture was performed essentially as described (Turner et al., 1984; Stahler et al., 1991). Briefly, testes were exposed through an abdominal incision, and the efferent ducts were ligated with surgical silk thread. Testes were then returned to the scrotum, wound cleansed with 70% ethanol, surgically closed and animals were allowed to recover. Twenty-four hours after efferent duct ligation, rats were anesthetized by ketamine HCl, bilateral nephrectomy was performed to prevent renal excretion of [^125I]-BSA, and approximately 6×10^6 cpm of [^125I]-BSA was infused into the rat via jugular vein. Two hours after infusion, testes were removed, RTF and STF were collected as described (Turner et al, 1984; Stahler et al., 1991) for radioactivity determination in a γ-counter. The left testis from the same animal without receiving either the occludin or myotubularin peptide served as a control, and both STF and RTF were also collected for radioactivity determination to assess the integrity of the BTB.

[5] = Stability of peptide to UV sterilization (HPLC retention, microsequencing); type: physicochemical; details: UV 5 minutes, suspension in 0.9% saline
Method: Intratesticular injection of occludin peptide and histological analysis of the testis. To assess the in vivo effects of the occludin peptide on spermatogenesis, peptide was administered to testes of adult rats by direct intratesticular injection as follows. Peptide was suspended in 0.9% sterile saline, sterilized by exposure to UV for 5 minutes. […] First, UV treated peptide retained the same retention time on reverse-phase HPLC using a Vydac C18 column (4.6×250 mm, i.d.) (Cheng et al., 1998; Cheng et al., 1989) when compared to peptide prior to the UV treatment. Second, the primary sequence of the UV-trated peptide remain unaltered when direct protein microsequencing was performed as described (Mruk and Cheng, 1990; Cheng et al., 1998; Cheng et al., 1989). Adult rats weighing between 250 and 300 g body weight were anesthetized with Metofane® before treatment. Rats received either 300 μl of 0.9% sterile saline (vehicle control), no treatment (control), or 1.5-10 mg of occludin peptide suspended in 300 μl of 0.9% sterile saline intratesticularly. The right testis of an animal received the peptide or vehicle and the left testis of the same animal was not treated and was used as a control. Peptide or vehicle was administered at 3 sites/testis with about 100 μl sample per site essentially as previously described (Grima et al., 1998; Eng et al., 1994). […]

[6] = 1.5 mg/testis, 2, 4, 6 and 12 weeks, vs rats without peptide

H-GSQIYTICSQFYTPGGTGLYVD-OH [occludin peptide]
decline in TER compared to untreated controls ([1]; 4 μM, days 4-5): approximately 50% | toxicity to Sertoli cells ([1]; concluded from reversibility after peptide removal): non-toxic | change in TER across Sertoli cell epithelia ([1]; peptide 0.2-4 μM added 24 hours after isolation, 1.2×10^6 cells/cm^2 (FIG. 4A)): dose-dependent decline in TER | time until TER reading indistinguishable from controls after peptide removal (TJ barrier reassembly) ([1]; peptide removed on day 5 by two washes (FIG. 4B)): 3 to 4 days | cell viability versus control cultures [2]: no apparent differences | reduction of seminiferous tubular diameter ([3]; 27 days, compared to control, vehicle or myotubularin peptide testes): 20-30% | time for almost full recovery of testes ([3]; 68 days versus 27 days post-treatment): ≤ 40 days | germ cell repopulation ([3]; after 27 days post treatment): began to repopulate in the epithelium | appearance of the testis and the epididymis ([3]; after intratesticular injection): appeared normal | elongated spermatids in seminiferous epithelium ([3]; between 8 and 16 days after treatment): began to deplete from the epithelium | germ cells in epithelium, virtually all tubules examined ([3]; by 27 days after intratesticular injection): Massive depletion of germ cells | morphology of tubules ([3]; by 47 days post treatment): spermatocytes were clearly visible in all the tubules examined | morphology of the seminiferous epithelium ([3]; by 68 days post treatment): indistinguishable from control rats | testicular weight ([3]; within 2 weeks after intratesticular injection of 0.15 mg or 1.5 mg, vs no treatment, vehicle or myotubularin peptide (FIG. 5)): reduction in testicular weight | effect on BTB integrity [4]: disruption of the BTB | effect of UV treatment on peptide structure [5]: did not alter its structure

NH2—TKVNERYELCDTYPALLAVPAN—COOH (H-TKVNERYELCDTYPALLAVPAN-OH) [myotubularin peptide]
effects to perturb the inter-Sertoli TJ barrier ([1]; 4 μM (data not shown)): no apparent effects | radioactivity detected in RTF [4, 6]: indistinguishable from control rats | radioactivity detected in STF [4, 6]: indistinguishable from control rats | effect on BTB integrity [4]: failed to induce disruption of the BTB
